These results are taken from US9957274B2, “Indane inhibitors of EED and methods of their use” (AbbVie Inc., priority 2016, dated 2018).

Assay [1] deals with H3K27me3 in OCILY19 cells. Description: H3K27me3 AlphaLISA assay in OCILY19 cells. It counts as cell-based. The note with it: Homo sapiens, OCI-LY19, 144 h, 6 days with compound, read-out: OCILY-19 IC50. The procedure: 5,000 cells were plated into each well of 96-well Corning CellBing cell culture plates and incubated overnight at 37° C. in a humidified CO2 incubator. […] The cell culture plates were then incubated for 6 more days. H3K27me3 AlphaLISA assay was performed on the cell culture samples by using AlphaLISAR® H3K27me3 Cellular Detection Kit (PerkinElmer) and 96-well white half-area plates (PerkinElmer).
(In general: In Alpha technology, singlet oxygen from a donor bead excites a nearby acceptor bead.)

A further assay concerns the target EED (Homo sapiens, UniProt O75530). Put plainly: EED TR-FRET Binding Assay (modified LanthaScreen competition assay). The essentials: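 Competition binding in a modified LanthaScreen format, in 20 mM Tris-HCl pH 7.5, 200 mM NaCl, 0.01% Tween-20, 10 uM DTT and 0.05% BSA. Reactions ran 1 hour at 25° C before TR-FRET detection.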
A further assay has as its system Pfeiffer cells. Description: CTG cell viability assay (CellTiter-Glo). It counts as cell-based. The settings on record: Homo sapiens, 240 h. How it is done:
1,000 cells were plated into each well of 96-well Corning CellBing cell culture plates and incubated overnight at 37° C. in a humidified CO2 incubator. […] The cell culture plates were then incubated for 10 more days. CTG cell viability assay was performed on the cell culture samples by using CellTiter-Glo® Luminescent Cell Viability Assay Kit (Promega).
(In ATP-based viability assays light output follows the ATP content of the culture.)

[2] abbreviates: Pfeiffer cells, 10 days with compound, CellTiter-Glo, read-out: Cell Proliferation IC50.
The mark [3] stands for this setting: Pfeiffer, read-out: Cell Proliferation IC50 (uM).

Where two headings read alike, the source gives them in different places.

Chain of EED (O75530 whole entry): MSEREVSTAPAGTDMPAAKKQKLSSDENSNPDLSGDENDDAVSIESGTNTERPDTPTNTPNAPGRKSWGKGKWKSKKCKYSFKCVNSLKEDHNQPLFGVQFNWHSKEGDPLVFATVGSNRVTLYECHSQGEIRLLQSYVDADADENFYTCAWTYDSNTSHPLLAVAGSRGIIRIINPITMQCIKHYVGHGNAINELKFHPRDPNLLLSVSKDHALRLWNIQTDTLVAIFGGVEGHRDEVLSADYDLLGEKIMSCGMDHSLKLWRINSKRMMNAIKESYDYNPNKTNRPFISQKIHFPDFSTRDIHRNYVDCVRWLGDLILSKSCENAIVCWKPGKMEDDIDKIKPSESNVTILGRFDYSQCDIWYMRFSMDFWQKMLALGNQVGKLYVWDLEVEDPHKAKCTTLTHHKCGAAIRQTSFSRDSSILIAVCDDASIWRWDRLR

As to `CN(C)[C@H]1CN([C@@H]2C[C@H](F)c3cccc(F)c32)C[C@@H]1c1ccc(S(C)(=O)=O)cc1` (mixture of isomers) [Example 31, rac-(3R,4S)-1-[(1R,3S)-3,7-difluoro-2,3-dihydro-1H-inden-1-yl]-4-[4-(methanesulfonyl)phenyl]-N,N-dimethylpyrrolidin-3-amine], the IC50 in assay [1] amounted to 3450 nM; on EED it was 8.19 nM; in the assay with Pfeiffer cells (setting [2]) it was 0.754 µM.
Turning to `CN(C)[C@H]1CN([C@H]2C[C@H](F)c3cccc(F)c32)C[C@@H]1c1ccc(S(C)(=O)=O)cc1` (mixture of isomers) [Example 32, rac-(3R,4S)-1-[(1S,3S)-3,7-difluoro-2,3-dihydro-1H-inden-1-yl]-4-[4-(methanesulfonyl)phenyl]-N,N-dimethylpyrrolidin-3-amine], the IC50 in assay [1] came to 2110 nM; on EED, 4.54 nM; with Pfeiffer cells (setting [2]) it was 2.81 µM.
As for `CN(C)[C@H]1CN(C2CCc3cccc(F)c32)C[C@@H]1c1ccc(C(=O)N2CC[C@H](O)C2)cc1` (mixture of isomers) [Example 40, rac-{4-[(3S,4R)-4-(dimethylamino)-1-(7-fluoro-2,3-dihydro-1H-inden-1-yl)pyrrolidin-3-yl]phenyl}[(3S)-3-hydroxypyrrolidin-1-yl]methanone], the IC50 was determined as 1080 nM in assay [1], 4.62 nM on EED and 0.941 µM in the assay on Pfeiffer cells (setting [2]).
For `CN(C)[C@H]1CN(C2CCc3cccc(F)c32)C[C@@H]1c1ccc(S(N)(=O)=O)cc1` (mixture of isomers) [Example 8, rac-4-[(3S,4R)-4-(dimethylamino)-1-(7-fluoro-2,3-dihydro-1H-inden-1-yl)pyrrolidin-3-yl]benzene-1-sulfonamide] the same measures were 637 nM, 10.7 nM and 1.32 µM.
As to `CNC(=O)c1ccc([C@H]2CN(C3CCc4cccc(F)c43)C[C@@H]2N(C)C)cc1` (mixture of isomers) [Example 24, rac-4-[(3S,4R)-4-(dimethylamino)-1-(7-fluoro-2,3-dihydro-1H-inden-1-yl)pyrrolidin-3-yl]-N-methylbenzamide], the figures for the IC50 (in assay [1]; on EED; with Pfeiffer cells (setting [2])) were 601 nM, 20.5 nM and 2.92 µM, respectively.
With `CN(C)C(=O)c1ccc([C@H]2CN(C3CCc4cccc(Cl)c43)C[C@@H]2N(C)C)cc1` (mixture of isomers) [Example 25, rac-4-[(3S,4R)-1-(7-chloro-2,3-dihydro-1H-inden-1-yl)-4-(dimethylamino)pyrrolidin-3-yl]-N,N-dimethylbenzamide], the IC50 was found to be 1060 nM in assay [1], 18.2 nM on EED and 2.93 µM with Pfeiffer cells (setting [2]).
For `CN(C)C(=O)c1ccc([C@H]2CN(C3CCc4cccc(F)c43)C[C@@H]2N(C)C)cc1` (mixture of isomers) [Example 26, rac-4-[(3S,4R)-4-(dimethylamino)-1-(7-fluoro-2,3-dihydro-1H-inden-1-yl)pyrrolidin-3-yl]-N,N-dimethylbenzamide] the same measures were 1360 nM, 2.51 nM and 3.03 µM.
For `Cc1cc([C@H]2CN(C3CCc4cccc(F)c43)C[C@@H]2N(C)C)ccc1C#N` (mixture of isomers) [Example 37, rac-4-[(3S,4R)-4-(dimethylamino)-1-(7-fluoro-2,3-dihydro-1H-inden-1-yl)pyrrolidin-3-yl]-2-methylbenzonitrile] the same measures were 874 nM, 2.67 nM and 2.66 µM.
With `CC(=O)N1CCN(c2ccc([C@H]3CN(C4CCc5cccc(F)c54)C[C@@H]3N(C)C)cc2)CC1` (mixture of isomers) [Example 44, rac-1-(4-{4-[(3S,4R)-4-(dimethylamino)-1-(7-fluoro-2,3-dihydro-1H-inden-1-yl)pyrrolidin-3-yl]phenyl}piperazin-1-yl)ethan-1-one], the IC50 in assay [1] turned out to be 144 nM; at EED, 0.652 nM; in the assay on Pfeiffer cells (setting [3]) it was 0.0836 µM.
Turning to `CN(C)[C@@H]1CN(C2CCc3cccc(F)c32)C[C@H]1c1ccc(N2CCN(C(=O)CO)CC2)cc1` (mixture of isomers) [Example 52, rac-1-(4-{4-[(3R,4S)-4-(dimethylamino)-1-(7-fluoro-2,3-dihydro-1H-inden-1-yl)pyrrolidin-3-yl]phenyl}piperazin-1-yl)-2-hydroxyethan-1-one], the IC50 in assay [1] was found to be 75 nM; at EED, 1 nM; with Pfeiffer cells (setting [2]) it was 0.0894 µM.
For the compound `CN(C)[C@@H]1CN(C2CCc3cccc(F)c32)C[C@H]1c1ccc(N2CCN(C(=O)C(N)=O)CC2)cc1` (mixture of isomers) [Example 54, rac-2-(4-{4-[(3R,4S)-4-(dimethylamino)-1-(7-fluoro-2,3-dihydro-1H-inden-1-yl)pyrrolidin-3-yl]phenyl}piperazin-1-yl)-2-oxoacetamide], the IC50 came out at 99.1 nM in assay [1], 1.06 nM on EED and 0.114 µM in the assay on Pfeiffer cells (setting [2]).
On to `CN1CCN(c2ccc([C@H]3CN(C4CCc5cccc(F)c54)C[C@@H]3N(C)C)cc2)CC1=O` (mixture of isomers) [Example 56, rac-4-{4-[(3S,4R)-4-(dimethylamino)-1-(7-fluoro-2,3-dihydro-1H-inden-1-yl)pyrrolidin-3-yl]phenyl}-1-methylpiperazin-2-one], for which the IC50 in assay [1] is 556 nM; on EED it was 1.39 nM; in the assay with Pfeiffer cells (setting [2]), 0.145 µM.
Turning to `Cc1cc([C@H]2CN(C3CCc4cccc(F)c43)C[C@@H]2N(C)C)ccc1N1CCN(C)C(=O)C1` (mixture of isomers) [Example 58, rac-4-{4-[(3S,4R)-4-(dimethylamino)-1-(7-fluoro-2,3-dihydro-1H-inden-1-yl)pyrrolidin-3-yl]-2-methylphenyl}-1-methylpiperazin-2-one], the IC50 in assay [1] is 376 nM; on EED, 1.67 nM; in the assay on Pfeiffer cells (setting [2]) it was 0.314 µM.
As to `CN(C)C(=O)c1cccc2c([C@H]3CN(C4CCc5cccc(F)c54)C[C@@H]3N(C)C)cn(C)c12` (mixture of isomers) [Example 101, rac-3-[(3S,4R)-4-(dimethylamino)-1-(7-fluoro-2,3-dihydro-1H-inden-1-yl)pyrrolidin-3-yl]-N,N,1-trimethyl-1H-indole-7-carboxamide], the results for the IC50 (in assay [1]; at EED) were 368 nM and 1.74 nM, respectively.
Regarding `CN(C)C(=O)CN1CCN(c2ccc([C@@H]3CN(C4CCc5cccc(F)c54)C[C@H]3N(C)C)cn2)CC1` (mixture of isomers) [Example 147, rac-2-(4-{5-[(3R,4S)-4-(dimethylamino)-1-(7-fluoro-2,3-dihydro-1H-inden-1-yl)pyrrolidin-3-yl]pyridin-2-yl}piperazin-1-yl)-N,N-dimethylacetamide], the values for the IC50 on EED and in the assay on Pfeiffer cells (setting [2]) were 3.84 nM and 0.535 µM, respectively.
For `CN(C)[C@@H]1CN(C2CCc3cccc(F)c32)C[C@H]1c1ccc(-c2cnn(CC(=O)N3CC(O)C3)c2)nc1` (mixture of isomers) [Example 150, rac-2-(4-{5-[(3R,4S)-4-(dimethylamino)-1-(7-fluoro-2,3-dihydro-1H-inden-1-yl)pyrrolidin-3-yl]pyridin-2-yl}-1H-pyrazol-1-yl)-1-(3-hydroxyazetidin-1-yl)ethan-1-one], in that order: 2.4 nM and 0.95 µM.
For `CN(C)[C@@H]1CN(C2CCc3cccc(F)c32)C[C@H]1c1ccc(N2CCN(C(=O)C3COC3)CC2)nc1` (mixture of isomers) [Example 151, rac-(4-{5-[(3R,4S)-4-(dimethylamino)-1-(7-fluoro-2,3-dihydro-1H-inden-1-yl)pyrrolidin-3-yl]pyridin-2-yl}piperazin-1-yl)(oxetan-3-yl)methanone], in that order: 2.24 nM and 0.559 µM.
Take `CN(C)[C@@H]1CN(C2CCc3cccc(F)c32)C[C@H]1c1ccc(-c2cnn(CC(=O)N3CC(F)C3)c2)nc1` (mixture of isomers) [Example 153, rac-2-(4-{5-[(3R,4S)-4-(dimethylamino)-1-(7-fluoro-2,3-dihydro-1H-inden-1-yl)pyrrolidin-3-yl]pyridin-2-yl}-1H-pyrazol-1-yl)-1-(3-fluoroazetidin-1-yl)ethan-1-one]: the IC50 on EED was 2.01 nM; with Pfeiffer cells (setting [2]), 0.419 µM.
Consider `CC(=O)N1CCN(c2ccc([C@H]3CN([C@@H]4CCc5cccc(F)c54)C[C@@H]3N(C)C)cc2)CC1` [Example 46, 1-[4-(4-{(3S,4R)-4-(dimethylamino)-1-[(1R)-7-fluoro-2,3-dihydro-1H-inden-1-yl]pyrrolidin-3-yl}phenyl)piperazin-1-yl]ethan-1-one], for which the IC50 worked out at 3.36 nM at EED and 1.01 µM in the assay on Pfeiffer cells (setting [3]).
Consider `CN(C)[C@H]1CN(C2CCc3cccc(F)c32)C[C@@H]1c1cn(C)c2ccccc12` (stereo partly drawn) [Example 76, (3R,4S)-1-(7-fluoro-2,3-dihydro-1H-inden-1-yl)-N,N-dimethyl-4-(1-methyl-1H-indol-3-yl)pyrrolidin-3-amine], for which the IC50 was found to be 1340 nM in assay [1] and 1.9 µM in the assay on Pfeiffer cells (setting [2]).
`CN(C)[C@H]1CN(C2CCc3cccc(F)c32)C[C@@H]1c1cn(C)c2c(C(=O)O)cccc12` (stereo partly drawn) [Example 79, 3-[(3S,4R)-4-(dimethylamino)-1-(7-fluoro-2,3-dihydro-1H-inden-1-yl)pyrrolidin-3-yl]-1-methyl-1H-indole-7-carboxylic acid]: the figures for the IC50 at EED and with Pfeiffer cells (setting [2]) were 2.45 nM and 1.02 µM, respectively.
